The values that follow come from patent US7691875B2, “Imidazopyridine compounds, processes for their preparation and therapeutic uses thereof” (AstraZeneca AB, priority 2003, dated 2010).

pIC50: −log10 of the molar value. ≈ marks a conversion by molar mass, not a printed value.

The nature of series [1]: Solubility in Fasted State Simulated Intestinal Fluid (FaSSIF). Type of series: physicochemical. As to conditions: thermodynamic from solid, FaSSIF pH 6.5, 37° C., measured after 24 hours. The procedure:
Solubility in Fasted State Simulated Intestinal Fluid (FaSSIF)
The method describes a procedure to measure solubility of solid material in PaSSIF (Fasted State Simulated Intestinal Fluid). The FaSSIF solution is an isotonic phosphate buffer where pH is adjusted to 6.5 to reflect pH in the jejunum. Taurocholic acid and lecithin is added to a concentration of 3 mmol/l and 0.75 mmol/l respectively.
1 mg of solid material, i.e. of the compound of invention, is added to 1 ml FaSSIF solution and equilibrated at 37° C. Samples are withdrawn after 1 and 24 hours. The samples are transferred to eppendorf tubes and spun at 10000 G and 37° C. for 10 minutes. A suitable volume of the supernatant is removed and diluted to a suitable concentration. The concentrations of the compounds in the samples are analysed with LC/UV/MS.

Series [2] has as its target H+,K+-ATPase (Homo sapiens, UniProt P20648). Description: Determination of H+,K+-ATPase activity (membrane vesicles, phosphate release). It is filed as biochemical. To be noted: 15 min, 37° C., pH 7.4, 10 mM KCl, 2 mM ATP. The procedure: Detennination of H^+,K^+-ATPase Activity
Membrane vesicles (2.5 to 5 μg) were incubated for 15 min at +37° C. in 18 mM Pipes/Tris buffer pH 7.4 containing 2 mM MgCl2, 10 mM KCl and 2 mM ATP. The ATPase activity was estimated as release of inorganic phosphate from ATP, as described by LeBel et al. (1978) Anal. Biochem. 85, 86-89.

Series [3] deals with histamine-stimulated acid secretion. The experiment in a line: Inhibition of histamine-stimulated gastric acid secretion in the conscious Heidenhain pouch dog. It is filed as in vivo. To be noted: 1-3 hours after dosing, mean n=2. The method, then: (§1) Inhibition of Gastric Acid Secretion and Bioavailability in the Conscious Dog.
Labrador retriever or Harrier dogs of either sex are used. They are equipped with a duodenal fistula for the administration of test compounds or vehicle and a cannulated gastric fistula or a Heidenhaim-pouch for the collection of gastric secretion.
Before secretory tests the animals are fasted for about 18 h but water is freely allowed. Gastric acid secretion is stimulated for up to 6.5 h infusion of histamine dihydrochloride (12 ml/h) at a dose producing about 80 % of the individual maximal secretory response, and gastric juice collected in consecutive 30-min fractions. Test substance or vehicle is given orally, i.d. or i.v., 1 or 1.5 h after starting the histamine infusion, in a volume of 0.5 ml/kg body weight. In the case of oral administration, it should be pointed out that the test compound is administered to the acid secreting main stomach of the Heidenham-pouch dog.
The acidity of the gastric juice samples are determined by titration to pH 7.0, and the acid output calculated. The acid output in the collection periods after administration of test substance or vehicle are expressed as fractional responses, setting the acid output in the fraction preceding administration to 1.0. Percentage inhibition is calculated from fractional responses elicited by test compound and vehicle.

Series [4] has as its system isolated rabbit gastric glands. The experiment in a line: Acid secretion inhibition in isolated rabbit gastric glands. It is filed as cell-based. To be noted: Oryctolagus cuniculus, in vitro. The method, then: Acid Secretion Inhibition in Isolated Rabbit Gastric Glands
Inhibiting effect on acid secretion in vitro in isolated rabbit gastric glands was measured as
described by Berglindh et al. (1976) Acta Physiol. Scand. 97, 401-414.

Series [5] in a line: Bioavailability in the conscious dog. It is filed as in vivo. To be noted: plasma. The method, then: Bioavailabiity is assessed by calculating the quotient between the area under blood/plasma concentration (AUC) curve following (i) intraduodenal (i.d.) or oral (p.o.) administration and (ii) intravenous (i.v.) administration from the rat or the dog, respectively.
The area under the blood concentration vs. time curve, AUC, is determined by the log/linear trapezoidal rule and extrapolated to infinity by dividing the last determined blood concentration by the elimination rate constant in the terminal phase. The systemic bioavailability (F%) following intraduodenal or oral administration is calculated as F(%)=(AUC (p.o. or i.d.)/AUC (i.v.))×100.
as §1
Blood samples for the analysis of test compound concentration in plasma are taken at intervals up to 4 h after dosing. Plasma is separated and frozen within 30 min after collection and later analyzed. The systemic bioavailability (F%) after oral or i.d. administration is calculated as described above in the rat model.

Chain of H+,K+-ATPase (P20648 whole entry): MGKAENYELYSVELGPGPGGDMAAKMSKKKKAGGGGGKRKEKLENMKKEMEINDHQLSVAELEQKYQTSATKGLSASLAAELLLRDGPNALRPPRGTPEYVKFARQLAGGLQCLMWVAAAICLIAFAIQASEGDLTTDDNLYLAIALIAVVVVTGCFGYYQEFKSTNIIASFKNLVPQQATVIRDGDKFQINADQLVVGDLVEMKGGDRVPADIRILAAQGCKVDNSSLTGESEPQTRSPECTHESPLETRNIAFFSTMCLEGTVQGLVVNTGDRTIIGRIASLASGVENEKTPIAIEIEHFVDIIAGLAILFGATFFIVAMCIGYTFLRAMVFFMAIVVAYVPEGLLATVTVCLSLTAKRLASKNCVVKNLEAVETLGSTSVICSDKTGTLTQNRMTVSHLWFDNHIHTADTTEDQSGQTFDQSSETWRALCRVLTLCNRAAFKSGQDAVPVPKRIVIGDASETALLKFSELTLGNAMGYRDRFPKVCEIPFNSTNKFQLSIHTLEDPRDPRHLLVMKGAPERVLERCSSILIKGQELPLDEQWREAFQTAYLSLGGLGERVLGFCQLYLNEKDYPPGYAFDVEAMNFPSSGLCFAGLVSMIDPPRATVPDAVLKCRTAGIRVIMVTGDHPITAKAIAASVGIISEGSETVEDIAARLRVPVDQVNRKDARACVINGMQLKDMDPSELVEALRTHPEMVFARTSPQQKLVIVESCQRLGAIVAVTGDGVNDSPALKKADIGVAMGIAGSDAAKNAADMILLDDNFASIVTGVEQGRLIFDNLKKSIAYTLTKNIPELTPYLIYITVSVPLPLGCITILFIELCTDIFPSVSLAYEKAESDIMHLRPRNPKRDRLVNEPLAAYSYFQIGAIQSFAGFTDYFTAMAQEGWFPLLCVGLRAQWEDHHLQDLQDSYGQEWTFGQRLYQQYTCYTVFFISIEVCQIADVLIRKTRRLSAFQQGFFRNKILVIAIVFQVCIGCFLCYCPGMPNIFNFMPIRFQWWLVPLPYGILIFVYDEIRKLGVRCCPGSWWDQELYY
Chain of H+,K+-ATPase (P51164 whole entry partner): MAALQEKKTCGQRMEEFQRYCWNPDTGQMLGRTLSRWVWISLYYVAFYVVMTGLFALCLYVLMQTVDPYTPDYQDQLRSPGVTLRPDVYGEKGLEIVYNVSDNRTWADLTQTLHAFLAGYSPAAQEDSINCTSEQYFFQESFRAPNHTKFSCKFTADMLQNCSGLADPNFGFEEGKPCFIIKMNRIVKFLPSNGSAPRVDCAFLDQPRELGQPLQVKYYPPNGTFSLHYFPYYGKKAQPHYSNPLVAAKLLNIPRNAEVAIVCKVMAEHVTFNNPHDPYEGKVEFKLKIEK

In series [1], `Cc1cccc(C)c1CNc1cc(C(=O)NC[C@H](C)O)cn2c(C)c(C)nc12` [compound of the invention, 8-[(2,6-dimethylbenzyl)amino]-N-[(2S)-2-hydroxypropyl]-2,3-dimethylimidazo[1,2-a]pyridine-6-carboxamide] gave a solubility at 24 h of 48 µM (≈ 18.3 µg/mL). For the same compound, the pIC50 is 6.16 in series [2] and 6.59 in series [4]. In series [3], the “mean percentage inhibition of histamine-stimulated acid secretion” value was determined as 91%.
For the compound `Cc1cccc(C)c1CNc1cc(C(=O)NCCO)cn2c(C)c(C)nc12` [8-[(2,6-dimethylbenzyl)amino]-N-(2-hydroxyethyl)-2,3-dimethylimidazo[1,2-a]pyridine-6-carboxamide, reference compound], the pIC50 in series [2] was 6.12; in series [4], 6.55. Also, the bioavailability in series [5] was determined as 61%.
Take `CS(=O)(=O)O.Cc1cccc(C)c1CNc1cc(C(=O)NC[C@H](C)O)cn2c(C)c(C)nc12` [8-[(2,6-dimethylbenyl)amino]-N-[(2S)-2-hydroxypropyl]-2,3-dimethylimidazo[1,2-a]pyridine-6-carboxamide mesylate salt]: the solubility at 24 h in series [1] was 218 µM.
